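Cells were grown in 96-well plates and exposed to each compound for 48 hours at five concentrations; endpoints were interpolated linearly between bracketing concentrations, or set to the highest concentration if not reached. At the TGI there is no net growth.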
Tests used:
Test in all cases: DTP human tumour cell line panel, 48 h
[1] = test system: OVCAR-8 ovarian
[2] = test system: UO-31 renal
[3] = test system: NCI-H226 lung
[4] = test system: PC-3 prostate
[5] = test system: HCT-15 colon
[6] = test system: NCI-H522 lung
[7] = test system: SK-OV-3 ovarian
[8] = test system: SK-MEL-5 melanoma
[9] = test system: HOP-92 NSCLC
[10] = test system: DU-145 prostate
[11] = test system: RXF 393 renal
[12] = test system: MDA-MB-435
[13] = test system: A549 NSCLC
[14] = test system: 786-0 renal
[15] = test system: T-47D breast
[16] = test system: MALME-3M melanoma
[17] = test system: MDA-N

SMILES | TGI [1] [µM] | TGI [2] [µM] | TGI [3] [µM] | TGI [4] [µM] | TGI [5] [µM] | TGI [6] [µM] | TGI [7] [µM] | TGI [8] [µM] | TGI [9] [µM] | TGI [10] [µM] | TGI [11] [µM] | TGI [12] [µM] | TGI [13] [µM] | TGI [14] [µM] | TGI [15] [µM] | TGI [16] [µM] | TGI [17] [µM]
COc1ccc(CCNC(=O)Cc2ccccc2CCO)cc1OC | > 100 | > 100 | > 100 | > 100 | > 100 | > 100 | > 100 | > 100 | > 100 | > 100 | > 100 | > 100 | > 100 | > 100 | > 100 |  | 
CNNC1=NS(=O)(=O)c2cc(C(=O)OC)c(Cl)cc2S1 | > 10 |  | > 10 | > 10 | > 10 | > 10 | > 10 | > 10 |  | > 10 | > 10 | > 10 | > 10 | > 10 | > 10 | > 10 | > 10
COc1ccccc1OCc1nnc(SCC(=O)O)n1-c1ccccc1 | > 100 | > 100 | > 100 |  | > 100 | > 100 | > 100 | > 100 | > 100 |  |  |  | > 100 | > 100 |  | > 100 | 
O=C(Cc1ccccc1)NN1C(=O)C(Cl)C1c1cc(Br)cc(Br)c1O (stereo not drawn) | > 100 | 20.6 | 36.9 |  | > 100 | 16.9 | 62.6 | 29.6 |  |  | 40.4 |  | 76.1 | 36.7 |  | 51.9 | 
C/C(CC(=O)Nc1ccc(C)cc1)=N\NC(N)=S | > 100 | > 100 | > 100 |  |  | > 100 | > 100 | > 100 | > 100 |  | > 100 |  | > 100 | > 100 |  | > 100 | 
CNC(=O)OC(C)CN1c2ccccc2Sc2ccccc21 (stereo not drawn) | > 100 | > 100 | > 100 | > 100 | > 100 | > 100 | > 100 | > 100 | > 100 | > 100 | > 100 | > 100 | > 100 | > 100 | > 100 | > 100 | 
CN1C(=O)NC2(O)c3ccccc3C(=O)C12O (stereo not drawn) | > 100 | > 100 |  |  | > 100 | > 100 | > 100 |  | > 100 |  |  |  | > 100 | > 100 |  | > 100 | 
Clc1ccc(OCc2nnc(CCCCCCCCc3nnc(COc4ccc(Cl)cc4)o3)o2)cc1 |  | > 100 | > 100 | > 100 | > 100 | > 100 | > 100 | > 100 | > 100 | > 100 | > 100 | > 100 | > 100 | > 100 |  | > 100 | > 100
O=c1[nH]nc2c3n[nH]c(=O)n3c3ccccc3n12 | > 100 | > 100 | > 100 |  | > 100 | > 100 | > 100 | > 100 | > 100 |  | > 100 |  | > 100 | > 100 |  | > 100 | 
O=C(c1cccs1)N(C(=S)OCc1ccccn1)c1ccccc1 | > 100 | 96.7 | > 100 | > 100 | > 100 |  | > 100 | > 100 |  | > 100 | > 100 | > 100 |  | > 100 | > 100 | 44 | > 100
COc1cccc(NC(=O)c2c(SC)n[nH]c2N)c1 | > 100 |  | > 100 | > 100 | > 100 | > 100 | > 100 | > 100 | > 100 |  | > 100 | > 100 | > 100 | > 100 |  | > 100 | > 100
COc1cccc2c1[C@H](OC)[C@]13O[C@@]1(C2=O)[C@H](O)[C@H](C)[C@@](O)(C(=O)[C@@H]1O[C@H]1C)[C@@H]3O | 0.61 | 0.647 | 1.2 |  | 2.07 | 0.403 | 1.47 | 0.386 | 0.723 |  | 1.1 | 0.518 | 0.729 | 2.52 |  | 0.523 | 0.768
O=C1c2ccccc2C(=O)N1C/C=N/NS(=O)(=O)c1ccc(Cl)cc1 | > 100 | > 100 | > 100 |  | > 100 | > 100 |  | > 100 |  |  |  |  | > 100 | > 100 |  | > 100 | 
O=c1cc2oc3ccc4ccccc4c3cc-2c(=O)[nH]1 | 4.53 | 23.5 |  | 22.4 | 22.9 | 27.9 | 34.5 | 29.3 |  | 27.6 |  | 25 | 42.8 | 26.7 |  | 30.3 | 23.8
S=C(NNC1=NCCCCN1)Nc1ccccc1 | > 100 | > 100 | > 100 | > 100 | > 100 | > 100 | > 100 | > 100 |  | > 100 |  | > 100 | > 100 | > 100 | > 100 | > 100 | > 100
CCCCNC(=O)C1=C(C)NC(C)=C(C(=O)NCCCC)C1 | > 100 | > 100 | > 100 |  | > 100 |  | > 100 | > 100 | > 100 | > 100 | > 100 | > 100 | > 100 | > 100 | > 100 |  | > 100
Nc1nonc1-c1noc(-c2nonc2N)[n+]1[O-] |  | > 100 | > 100 | > 100 | 49.1 | 28 | > 100 | > 100 | > 100 | > 100 | 51.1 | > 100 | 90.7 | > 100 |  | 42.5 | > 100
